Measurements from patent US20250026752A1, “POSITIVE ALLOSTERIC MODULATORS OF THE MUSCARINIC ACETYLCHOLINE RECEPTOR M4” (Vanderbilt University, priority 2021, published 2025).

Target: T1, human mAChR M4 (Homo sapiens, UniProt P08173)
T1 construct: expressed in transfected cells; host or cells: CHO-K1 (ATCC), stably expressing hM4 and Gqi5
T1 sequence (P08173 1-479): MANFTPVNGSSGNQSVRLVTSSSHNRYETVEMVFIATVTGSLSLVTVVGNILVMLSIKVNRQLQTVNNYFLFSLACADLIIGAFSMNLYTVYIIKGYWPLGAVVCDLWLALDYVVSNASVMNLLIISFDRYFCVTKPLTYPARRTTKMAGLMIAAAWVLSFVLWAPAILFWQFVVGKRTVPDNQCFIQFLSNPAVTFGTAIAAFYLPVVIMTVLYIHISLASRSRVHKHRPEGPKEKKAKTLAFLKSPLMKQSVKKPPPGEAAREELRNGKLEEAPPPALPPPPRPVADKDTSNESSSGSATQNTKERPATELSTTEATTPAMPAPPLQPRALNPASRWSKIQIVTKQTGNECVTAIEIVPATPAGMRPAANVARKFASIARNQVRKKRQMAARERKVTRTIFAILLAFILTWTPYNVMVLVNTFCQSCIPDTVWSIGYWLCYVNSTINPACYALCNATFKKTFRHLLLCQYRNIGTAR
Assay: mAChR M4 cell-based functional assay: calcium flux (Fluo-4, FDSS), positive allosteric modulator activity on the EC20 acetylcholine response, hM4-Gqi5 CHO-K1 cells
Conditions: for Emax at 30 µM: CHO-K1, human M4, % ACh maximum at 30 μM; for EC50: human M4, PAM activity on EC20 acetylcholine response, calcium flux, read-out: Human M4 EC50
Outline: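 Potentiation was taken as the concentration-dependent rise in the EC20 acetylcholine calcium response, fitted by a four-parameter logistic with EC20 as baseline. Fluo-4-loaded hM4-Gqi5 CHO-K1 cells received 11-point, threefold-diluted compound before acetylcholine at 144 s; FDSS read at 1 Hz.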

SMILES | Emax at 30 µM | EC50
Fc1ccc2ncnc(N3CCc4ncc(-c5ccc(C(F)(F)F)nc5)cc4C3)c2c1 [Compound 16, 6-fluoro-4-[3-[6-(trifluoromethyl)-3-pyridyl]-7,8-dihydro-5H-1,6-naphthyridin-6-yl]quinazoline] | 89% | 360 nM
Cc1nc(N2CCc3ncc(N4CCCn5nccc54)cc3C2)c2cc(C(F)(F)F)ccc2n1 [Compound 101, 4-[3-(6,7-dihydro-5H-pyrazolo[1,5-a]pyrimidin-4-yl)-7,8-dihydro-5H-1,6-naphthyridin-6-yl]-2-methyl-6-(trifluoromethyl)quinazoline] | 92% | 480 nM
Cc1nc(N2CCc3ncc(-c4ccnn4C)cc3C2)c2cc(Cl)ccc2n1 [Compound 45, 6-chloro-2-methyl-4-[3-(2-methylpyrazol-3-yl)-7,8-dihydro-5H-1,6-naphthyridin-6-yl]quinazoline] | 98% | 60 nM
Cc1nn(C)cc1-c1cnc2c(c1)CN(c1nc(C3CC3)nc3ccc(F)cc13)CC2 [Compound 193, 2-cyclopropyl-4-[3-(1,3-dimethylpyrazol-4-yl)-7,8-dihydro-5H-1,6-naphthyridin-6-yl]-6-fluoro-quinazoline] | 85% | 950 nM
Cn1nccc1Nc1cnc2c(c1)CN(c1nc(NCC(C)(C)O)nc3ccc(F)cc13)CC2 [Compound 212, 1-[[6-fluoro-4-[3-[(2-methylpyrazol-3-yl)amino]-7,8-dihydro-5H-1,6-naphthyridin-6-yl]quinazolin-2-yl]amino]-2-methyl-propan-2-ol] | 90% | 190 nM
CC1CN(c2ncnc3ccc(F)cc23)Cc2cc(C(F)(F)F)cnc21 (racemic) [Compound 115, 6-fluoro-4-[8-methyl-3-(trifluoromethyl)-7,8-dihydro-5H-1,6-naphthyridin-6-yl]quinazoline] | 93% | 60 nM
COc1ccc2ncnc(N3CCc4ncc(N5CCOc6ncccc65)cc4C3)c2c1 [Compound 79, 1-[6-(6-methoxyquinazolin-4-yl)-7,8-dihydro-5H-1,6-naphthyridin-3-yl]-2,3-dihydropyrido[2,3-b][1,4]oxazine] | 105% | 250 nM
Fc1cc2ncnc(N3CCc4ncc(C5CC5)cc4C3)c2cc1F [Compound 162, 4-(3-cyclopropyl-7,8-dihydro-5H-1,6-naphthyridin-6-yl)-6,7-difluoro-quinazoline] | 88% | 60 nM
Cc1nc(N2CCc3ncc(-c4c(C)noc4C)cc3C2)c2cc(Cl)ccc2n1 [Compound 47, 4-[6-(6-chloro-2-methyl-quinazolin-4-yl)-7,8-dihydro-5H-1,6-naphthyridin-3-yl]-3,5-dimethyl-isoxazole] | 99% | 140 nM
Cc1ccc(F)c(Oc2cnc3c(c2)CN(c2nc(C)nc4ccc(Cl)cc24)CC3)c1 [Compound 154, 6-chloro-4-[3-(2-fluoro-5-methyl-phenoxy)-7,8-dihydro-5H-1,6-naphthyridin-6-yl]-2-methyl-quinazoline] | 62% | 7690 nM
Fc1ccc2nc(Oc3ccccc3F)nc(N3CCc4ncc(C(F)(F)F)cc4C3)c2c1 [Compound 199, 6-fluoro-2-(2-fluorophenoxy)-4-[3-(trifluoromethyl)-7,8-dihydro-5H-1,6-naphthyridin-6-yl]quinazoline] | 96% | 3370 nM
Cc1ccc2nc(C)nc(N3CCc4ncc(N5CCOc6ncccc65)cc4C3)c2c1 [Compound 99, 1-[6-(2,6-dimethylquinazolin-4-yl)-7,8-dihydro-5H-1,6-naphthyridin-3-yl]-2,3-dihydropyrido[2,3-b][1,4]oxazine] | 101% | 100 nM
C[C@H]1CN(c2ncnc3ccc(Cl)cc23)Cc2cc(N3CCOCC3)cnc21 [Compound 263, (S)-4-(6-(6-chloroquinazolin-4-yl)-8-methyl-5,6,7,8-tetrahydro-1,6-naphthyridin-3-yl)morpholine] | 88% | 160 nM
Cc1nc(N2CCc3ncc(C(F)(F)F)cc3C2)c2ccc(F)cc2n1 [Compound 127, 7-fluoro-2-methyl-4-[3-(trifluoromethyl)-7,8-dihydro-5H-1,6-naphthyridin-6-yl]quinazoline] | 63% | 430 nM
CC1CN(c2cnc3c(c2)CN(c2ncnc4ccc(F)cc24)CC3)c2ccnn2C1 (stereo not shown) [Compound 225, 6-fluoro-4-(3-(6-methyl-6,7-dihydropyrazolo[1,5-a]pyrimidin-4(5H)-yl)-7,8-dihydro-1,6-naphthyridin-6(5H)-yl)quinazoline] | 94% | 70 nM
C[C@@H]1CN(c2cnc3c(c2)CN(c2ncnc4cc(F)c(F)cc24)CC3)CCO1 [Compound 241, (R)-4-(6-(6,7-difluoroquinazolin-4-yl)-5,6,7,8-tetrahydro-1,6-naphthyridin-3-yl)-2-methylmorpholine] | 77% | 80 nM
Fc1cc2ncnc(N3CCc4ncc(Nc5cccnc5F)cc4C3)c2cc1F [Compound 243, 6-(6,7-difluoroquinazolin-4-yl)-N-(2-fluoropyridin-3-yl)-5,6,7,8-tetrahydro-1,6-naphthyridin-3-amine] | 91% | 70 nM
COc1ccc2ncnc(N3CCc4ncc(-c5ccccc5C)cc4C3)c2c1 [Compound 296, 6-methoxy-4-(3-(o-tolyl)-7,8-dihydro-1,6-naphthyridin-6(5H)-yl)quinazoline] | 102% | 1370 nM
COc1ccc2ncnc(N3CCc4ncc(N5CCC(C(F)(F)F)n6nccc65)cc4C3)c2c1 (stereo not shown) [Compound 90, 6-methoxy-4-[3-[7-(trifluoromethyl)-6,7-dihydro-5H-pyrazolo[1,5-a]pyrimidin-4-yl]-7,8-dihydro-5H-1,6-naphthyridin-6-yl]quinazoline] | 76% | 1360 nM
Cc1ccc2nc(C)nc(N3CCc4ncc(N5CCCn6nccc65)cc4C3)c2c1 [Compound 100, 4-[3-(6,7-dihydro-5H-pyrazolo[1,5-a]pyrimidin-4-yl)-7,8-dihydro-5H-1,6-naphthyridin-6-yl]-2,6-dimethyl-quinazoline] | 101% | 60 nM
Cn1nccc1Nc1cnc2c(c1)CN(c1nc(N3CCOC(C)(C)C3)nc3ccc(F)cc13)CC2 [Compound 214, 6-[2-(2,2-dimethylmorpholin-4-yl)-6-fluoro-quinazolin-4-yl]-N-(2-methylpyrazol-3-yl)-7,8-dihydro-5H-1,6-naphthyridin-3-amine] | 70% | 830 nM
Cc1cnn(C)c1-c1cnc2c(c1)CN(c1ncnc3cc(F)c(F)cc13)CC2 [Compound 270, 4-(3-(1,4-dimethyl-1H-pyrazol-5-yl)-7,8-dihydro-1,6-naphthyridin-6(5H)-yl)-6,7-difluoroquinazoline] | 86% | 100 nM
Fc1cccc(Cc2cnc3c(c2)CN(c2ncnc4ccc(F)cc24)CC3)c1 [Compound 114, 6-fluoro-4-[3-[(3-fluorophenyl)methyl]-7,8-dihydro-5H-1,6-naphthyridin-6-yl]quinazoline] | 75% | 590 nM
OC1(C2CC2)CN(c2nc(N3CCc4ncc(C(F)(F)F)cc4C3)c3cc(F)ccc3n2)C1 [Compound 201, 3-cyclopropyl-1-[6-fluoro-4-[3-(trifluoromethyl)-7,8-dihydro-5H-1,6-naphthyridin-6-yl]quinazolin-2-yl]azetidin-3-ol] | 97% | 290 nM
Fc1ccc2nc(N3CCOCC3)nc(N3CCc4ncc(C(F)(F)F)cc4C3)c2c1 [Compound 183, 4-[6-fluoro-4-[3-(trifluoromethyl)-7,8-dihydro-5H-1,6-naphthyridin-6-yl]quinazolin-2-yl]morpholine] | 71% | 260 nM
Cc1nc(N2CCc3ncc(Nc4cccnc4F)cc3C2)c2cc(Cl)ccc2n1 [Compound 72, 6-(6-chloro-2-methyl-quinazolin-4-yl)-N-(2-fluoro-3-pyridyl)-7,8-dihydro-5H-1,6-naphthyridin-3-amine] | 84% | 490 nM
C[C@@H]1CN(c2ncnc3cc(F)c(F)cc23)Cc2cc(N3CCOCC3)cnc21 [Compound 258, (R)-4-(6-(6,7-difluoroquinazolin-4-yl)-8-methyl-5,6,7,8-tetrahydro-1,6-naphthyridin-3-yl)morpholine] | 93% | 180 nM
Cc1nc(N2CCc3ncc(-c4cnc(F)cc4C)cc3C2)c2cc(Cl)ccc2n1 [Compound 311, 6-chloro-4-(3-(6-fluoro-4-methylpyridin-3-yl)-7,8-dihydro-1,6-naphthyridin-6(5H)-yl)-2-methylquinazoline] | 77% | 180 nM
Cc1nc(N2Cc3cc(C(F)(F)F)cnc3C(C)C2)c2cc(F)ccc2n1 (stereo not shown) [Compound 157, 6-fluoro-2-methyl-4-[8-methyl-3-(trifluoromethyl)-7,8-dihydro-5H-1,6-naphthyridin-6-yl]quinazoline] | 95% | 220 nM
